Tests used:
HCV replicon genotype 1a = test: microbe, parasite or virus in culture; format: cell-based; conditions: genotype 1a replicon cells, incubated 96 hours, NS3/4A ELISA readout
HCV replicon genotype 1b = test: microbe, parasite or virus in culture; format: cell-based; conditions: genotype 1b replicon cells, incubated 96 hours, NS3/4A ELISA readout

| SMILES | IC50 (HCV replicon genotype 1a; Hepatitis C virus, 96 h) [nM] | IC50 (HCV replicon genotype 1b; Hepatitis C virus, 96 h) [nM] | IC50 (HCV replicon genotype 1a) [nM] | IC50 (HCV replicon genotype 1b) [nM] |
| --- | --- | --- | --- | --- |
| CNC(=O)c1c(-c2ccc(F)cc2)oc2cc(N(C)S(C)(=O)=O)c(-c3ncc4c(n3)-c3cc5ccccc5n3C(C)O4)cc12 (stereo not shown) [Compound 9] | 1.1 | 1.9 | – | – |
| CNC(=O)c1c(-c2ccc(F)cc2)oc2cc(N(C)S(C)(=O)=O)c(-c3ccc4c(n3)-c3cc5cccc(Cl)c5n3CO4)cc12 [Compound 21] | 14 | 13 | – | – |
| CNC(=O)c1c(-c2ccc(F)cc2)oc2cc(N(C)S(C)(=O)=O)c(-c3ccc4c(n3)-c3cc5c(F)cccc5n3C(CN3CCOCC3)O4)cc12 (stereo not shown) [Compound 123, 5-(11-fluoro-6-(morpholinomethyl)-6H-pyrido[2′,3′:5,6][1,3]oxazino[3,4-a]indol-2-yl)-2-(4-fluorophenyl)-N-methyl-6-(N-methylmethylsulfonamido)benzofuran-3-carboxamide] | 3.4 | 3.6 | – | – |
| CCOC(=O)C1Oc2ccc(-c3cc4c(C(=O)NC)c(-c5ccc(F)cc5)oc4cc3N(C)S(C)(=O)=O)nc2-c2cc3c(F)cccc3n21 (stereo not shown) [Compound 113] | 32 | 29 | – | – |
| CNC(=O)c1c(-c2ccc(F)cc2)oc2cc(-c3ccsc3)c(-c3ccc4c(n3)-c3cc5c(F)cccc5n3CO4)cc12 [Compound 166] | 69 | 27 | – | – |
| CNC(=O)c1c(-c2ccc(F)cc2)oc2cc(N(C)S(C)(=O)=O)c(-c3ccc4c(n3)-c3c(F)c5c(F)cccc5n3CO4)cc12 [Compound 59] | 2.5 | 4.2 | – | – |
| CNC(=O)c1c(-c2ccc(F)cc2)oc2cc(N(C)S(C)(=O)=O)c(-c3ccc4c(n3)-c3cc5c(F)cccc5n3C(CO)O4)cc12 (stereo not shown) [Compound 88, 5-(11-fluoro-6-(hydroxymethyl)-6H-pyrido[2′,3′:5,6][1,3]oxazino[3,4-a]indol-2-yl)-2-(4-fluorophenyl)-N-methyl-6-(N-methylmethylsulfonamido)benzofuran-3-carboxamide] | – | – | 2.7 | 2.6 |
| CNC(=O)c1c(-c2ccc(F)cc2)oc2cc(N(C)S(C)(=O)=O)c(-c3cc4c(cn3)OCn3c-4cc4cccnc43)cc12 [Compound 50] | 15 | 4.6 | – | – |
| CNC(=O)c1c(-c2ccc(F)cc2)oc2cc(N(C)S(C)(=O)=O)c(-c3ccc4c(n3)-c3c(Cl)c5ccccc5n3CO4)cc12 [Compound 55, 5-(12-chloro-6H-pyrido[2′,3′:5,6][1,3]oxazino[3,4-a]indol-2-yl)-2-(4-fluorophenyl)-N-methyl-6-(N-methylmethylsulfonamido)benzofuran-3-carboxamide] | 57 | 49 | – | – |
| CNC(=O)c1c(-c2ccc(F)cc2)oc2cc(N(C)S(C)(=O)=O)c(-c3ccc4c(n3)-c3cc5c(F)cccc5n3C(C)(CO)O4)cc12 (stereo not shown) [Compound 92] | – | – | 4.2 | 6.5 |
| CNC(=O)c1c(-c2ccc(F)cc2)oc2cc(N(C)S(C)(=O)=O)c(-c3ccc4c(c3)-c3[nH]c5ccccc5c3C(C)(C)O4)cc12 [Compound 61, 5-(6,6-dimethyl-6,11-dihydrochromeno[4,3-b]indol-2-yl)-2-(4-fluorophenyl)-N-methyl-6-(N-methylmethylsulfonamido)benzofuran-3-carboxamide] | 6.5 | 11 | – | – |
| CNC(=O)c1c(-c2ccc(F)cc2)oc2cc(N(C)S(C)(=O)=O)c(-c3ccc4c(n3)-c3cc5cccnc5n3CO4)cc12 [Compound 48, 2-(4-fluorophenyl)-N-methyl-6-(N-methylmethylsulfonamido)-5-(6H-pyrido[2,3-e]pyrido[3′,2′:4,5]pyrrolo[1,2-c][1,3]oxazin-2-yl)benzofuran-3-carboxamide] | 2.2 | 2.6 | – | – |
| CNC(=O)c1c(-c2ccc(F)cc2)oc2cc(N(CC(C)O)S(C)(=O)=O)c(-c3ccc4c(n3)-c3cc5c(F)cccc5n3CO4)cc12 (stereo not shown) [Compound 202] | 2.8 | 8.8 | – | – |
| CNC(=O)c1c(-c2ccc(F)cc2)oc2cc(N(C)S(C)(=O)=O)c(-c3cc4c(cn3)OC(CO)n3c-4cc4c(F)cccc43)cc12 (stereo not shown) [Compound 90] | – | – | 5.5 | 2.4 |
| CNC(=O)c1c(-c2ccc(F)cc2)oc2cc(N(C)S(C)(=O)=O)c(-c3cnc4c(c3)-c3cc5c(F)cccc5n3CO4)cc12 [Compound 34] | 1.4 | 3.3 | – | – |
| CNC(=O)c1c(-c2ccc(F)cc2)oc2cc(-c3ccnn3C)c(-c3ccc4c(n3)-c3cc5c(F)cccc5n3CO4)cc12 [Compound 165, 5-(11-fluoro-6H-pyrido[2′,3′:5,6][1,3]oxazino[3,4-a]indol-2-yl)-2-(4-fluorophenyl)-N-methyl-6-(1-methyl-1H-pyrazol-5-yl)benzofuran-3-carboxamide] | 27 | 9.7 | – | – |
| CNC(=O)c1c(-c2ccc(F)cc2)oc2cc(N(C)S(C)(=O)=O)c(-c3ccc4c(n3)-c3nc5cccc(F)c5n3CO4)cc12 [Compound 140] | 7.9 | 5.9 | – | – |
| CNC(=O)c1c(-c2ccc(F)cc2)oc2cc(N(C)S(C)(=O)=O)c(-c3ccc4c(n3)-c3nc5cccnc5n3CO4)cc12 [Compound 137] | 44 | 7.9 | – | – |

| SMILES | IC50 (HCV replicon genotype 1a; Hepatitis C virus, 96 h) [nM] | IC50 (HCV replicon genotype 1b; Hepatitis C virus, 96 h) [nM] | IC50 (HCV replicon genotype 1a) [nM] | IC50 (HCV replicon genotype 1b) [nM] |
| --- | --- | --- | --- | --- |
| CN(c1cc2oc(-c3ccc(F)cc3)c(-c3ncn[nH]3)c2cc1-c1ccc2c(n1)-c1cc3c(F)cccc3n1CO2)S(C)(=O)=O [Compound 160, N-(5-(11-fluoro-6H-pyrido[2′,3′:5,6][1,3]oxazino[3,4-a]indol-2-yl)-2-(4-fluorophenyl)-3-(1H-1,2,4-triazol-5-yl)benzofuran-6-yl)-N-methylmethanesulfonamide] | 19 | 16 | – | – |
| CNC(=O)c1c(-c2ccc(F)cc2)oc2cc(N(C)S(C)(=O)=O)c(-c3ccc4c(c3)-c3cc5ccccc5n3CC(NCCCN(C)C)CO4)cc12 (stereo not shown) [Compound 81] | 36 | 22 | – | – |
| CNC(=O)c1c(-c2ccc(F)cc2)oc2cc(N(C)S(C)(=O)=O)c(-c3ncc4c(n3)-c3cc5c(F)c(F)ccc5n3CO4)cc12 [Compound 30] | 1 | 2.1 | – | – |
| CNC(=O)c1c(-c2ccc(F)cc2)oc2cc(N3CC(=O)NC3=O)c(-c3ccc4c(n3)-c3cc5c(F)cccc5n3CO4)cc12 [Compound 179, 6-(2,4-dioxoimidazolidin-1-yl)-5-(11-fluoro-6H-pyrido[2′,3′:5,6][1,3]oxazino[3,4-a]indol-2-yl)-2-(4-fluorophenyl)-N-methylbenzofuran-3-carboxamide] | 32 | 7.4 | – | – |
| CNC(=O)c1c(-c2ccc(F)cc2)oc2cc(N(C)S(C)(=O)=O)c(-c3ccc4c(n3)-c3cc5c(F)cccc5n3C(C)O4)cc12 (stereo not shown) [Compound 37] | 3.4 | 5.9 | – | – |
| CNC(=O)c1c(-c2ccc(F)cc2)oc2cc(N(C)S(C)(=O)=O)c(-c3cnc4c(c3)-c3cc5ccccc5n3CO4)cc12 [Compound 24] | 3 | 5.1 | – | – |
| CNC(=O)c1c(-c2ccc(F)cc2)oc2cc(N(C)S(C)(=O)=O)c(-c3ccc4c(n3)-c3[nH]c5ncccc5c3CO4)cc12 [Compound 52, 5-(6,11-dihydropyrido[2″,3″:5′,6′]pyrano[3′,4′:4,5]pyrrolo[2,3-b]pyridin-2-yl)-2-(4-fluorophenyl)-N-methyl-6-[methyl(methylsulfonyl)amino]-1-benzofuran-3-carboxamide] | 1.7 | 2.7 | – | – |
| CNC(=O)c1c(-c2ccc(F)cc2)oc2cc(N(C)S(C)(=O)=O)c(-c3ncc4c(n3)-c3cc5c(F)cccc5n3CCCO4)cc12 [Compound 40] | 2 | 2.2 | – | – |
| CNC(=O)c1c(-c2ccc(F)cc2)oc2cc(N(C)S(C)(=O)=O)c(-c3ncc4c(n3)-c3cc5ccccc5n3CO4)cc12 [Compound 4] | 0.7 | 1.3 | – | – |
| CNC(=O)c1c(-c2ccc(F)cc2)oc2cc(N(CCF)S(C)(=O)=O)c(-c3ccc4c(n3)-c3cc5ccccc5n3CO4)cc12 [Compound 189] | 2.9 | 4.4 | – | – |
| CNC(=O)c1c(-c2ccc(F)cc2)oc2cc(N(C)S(C)(=O)=O)c(-c3ccc4c(c3)-c3cc5ccccc5n3CC(O)(C(F)(F)F)CO4)cc12 (stereo not shown) [Compound 79, 2-(4-fluorophenyl)-5-(7-hydroxy-7-(trifluoromethyl)-7,8-dihydro-6H-benzo[2,3][1,5]oxazocino[5,4-a]indol-2-yl)-N-methyl-6-(N-methylmethylsulfonamido)benzofuran-3-carboxamide] | 10 | 11 | – | – |
| CNC(=O)c1c(-c2ccc(F)cc2)oc2cc(N(C)S(C)(=O)=O)c(-c3ccc4c(n3)-c3cc5c(F)cccc5n3C(C(=O)NC)O4)cc12 (stereo not shown) [Compound 109] | 2 | – | – | 2.1 |
| CNC(=O)c1c(-c2ccc(F)cc2)oc2cc(N(C)S(C)(=O)=O)c(-c3ccc4c(c3)-c3cc5ccccc5n3CC(F)(F)CO4)cc12 [Compound 77, 5-(7,7-difluoro-7,8-dihydro-6H-benzo[2,3][1,5]oxazocino[5,4-a]indol-2-yl)-2-(4-fluorophenyl)-N-methyl-6-(N-methylmethylsulfonamido)benzofuran-3-carboxamide] | 10 | 11 | – | – |
| CNC(=O)c1c(-c2ccc(F)cc2)oc2cc(N(C)S(C)(=O)=O)c(-c3ccc4c(n3)-c3cc5c(F)cccc5n3C(COC)O4)cc12 (stereo not shown) [Compound 96] | – | – | 4.1 | 5.1 |
| CNC(=O)c1c(-c2ccc(F)cc2)oc2cc(N(C)S(C)(=O)=O)c(-c3cnc4c(c3)-c3nc5c(n3CO4)CCCC5)cc12 [Compound 141, 2-(4-fluorophenyl)-N-methyl-6-(N-methylmethylsulfonamido)-5-(8,9,10,11-tetrahydro-6H-benzo[4,5]imidazo[1,2-c]pyrido[3,2-e][1,3]oxazin-2-yl)benzofuran-3-carboxamide] | 2.4 | 2.4 | – | – |
| CNC(=O)c1c(-c2ccc(F)cc2)oc2cc(N(C)S(C)(=O)=O)c(-c3ccc4c(n3)-c3c(Cl)c5c(F)cccc5n3CO4)cc12 [Compound 56] | 13 | 12 | – | – |
| CNC(=O)c1c(-c2ccc(F)cc2)oc2cc(N)c(-c3ccc4c(n3)-c3cc5c(F)cccc5n3CO4)cc12 [Compound 163, 6-amino-5-(11-fluoro-6H-pyrido[2′,3′:5,6][1,3]oxazino[3,4-a]indol-2-yl)-2-(4-fluorophenyl)-N-methylbenzofuran-3-carboxamide] | 1.1 | 2.2 | – | – |

From patent US9265773B2, “Tetracyclic heterocycle compounds and methods of use thereof for the treatment of viral diseases” (priority 2011, dated 2016)
